In BindingDB's records for patent US11780849 (Volastra Therapeutics, 2023):

What follows are compounds tested against T1, Ectonucleotide pyrophosphatase/phosphodiesterase family member 1 (Homo sapiens, UniProt P22413) (assay: Inhibition of ENPP1 Hydrolysis of 2′,3′-cGAMP).
T1 sequence (P22413 whole entry): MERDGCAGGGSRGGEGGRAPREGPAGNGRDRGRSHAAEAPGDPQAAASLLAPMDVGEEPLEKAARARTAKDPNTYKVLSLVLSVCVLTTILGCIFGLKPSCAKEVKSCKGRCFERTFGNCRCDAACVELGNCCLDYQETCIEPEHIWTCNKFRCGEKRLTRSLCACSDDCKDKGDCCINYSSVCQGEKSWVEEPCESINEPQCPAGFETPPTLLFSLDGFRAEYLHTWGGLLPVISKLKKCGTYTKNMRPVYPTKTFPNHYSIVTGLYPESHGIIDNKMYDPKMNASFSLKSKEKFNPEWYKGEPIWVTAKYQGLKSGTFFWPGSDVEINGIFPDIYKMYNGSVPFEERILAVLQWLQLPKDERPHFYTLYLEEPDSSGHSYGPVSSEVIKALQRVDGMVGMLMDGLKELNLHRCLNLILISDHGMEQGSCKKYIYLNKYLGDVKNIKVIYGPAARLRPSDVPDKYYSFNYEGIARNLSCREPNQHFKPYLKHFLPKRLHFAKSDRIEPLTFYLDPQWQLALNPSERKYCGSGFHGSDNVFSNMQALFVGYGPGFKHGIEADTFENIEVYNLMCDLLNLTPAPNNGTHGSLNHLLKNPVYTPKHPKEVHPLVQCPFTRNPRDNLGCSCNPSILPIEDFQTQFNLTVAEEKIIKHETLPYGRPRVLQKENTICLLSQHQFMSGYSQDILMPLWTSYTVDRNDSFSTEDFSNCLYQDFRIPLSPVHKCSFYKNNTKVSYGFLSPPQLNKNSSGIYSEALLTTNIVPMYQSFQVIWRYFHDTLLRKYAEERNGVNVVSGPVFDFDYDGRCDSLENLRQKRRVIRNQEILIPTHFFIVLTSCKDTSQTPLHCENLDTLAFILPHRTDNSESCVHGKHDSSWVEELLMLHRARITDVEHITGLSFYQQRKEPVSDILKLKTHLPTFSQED
Method: Assay 1: Test compounds were plated in a 3 dilution scheme in a 384 well plate. […] AMP Detection solution (100 μL) was added to each well, the plate centrifuged and incubated for 60 min. Luminescence was measured with an Envision plate reader, and % Inhibition was calculated for each well as: (([max−min]−[test−min])/[max−min].

| IC50 [nM] | SMILES |
| --- | --- |
| < 10 | COc1cc2nncc(N3CCC(CCS(C)(=N)=O)CC3)c2cc1OC (configuration not stated) [US11780849, Compound 151] |
| < 10 | COc1cc2nccc(N3CCC(CCS(C)(=N)=O)CC3)c2cc1Cl (configuration not stated) [US11780849, Compound 141] |
| < 10 | COc1cc2nccc(N3CCC(CCS(C)(=N)=O)CC3)c2cc1F (configuration not stated) [US11780849, Compound 150] |
| < 10 | COc1cc2nccc(-c3ccc4c(c3)CN(S(C)(=N)=O)CC4)c2cc1OC (configuration not stated) [US11780849, Compound 161] |

Continued, compound first:

| SMILES | IC50 [nM] |
| --- | --- |
| COc1ccc2nccc(Oc3ccc(S(C)(=N)=O)cc3)c2n1 (configuration not stated) [US11780849, Compound 130] | > 1000 |
| COc1cccc2c(OCc3ccc(S(C)(=N)=O)cc3)ccnc12 (configuration not stated) [US11780849, Compound 134] | > 1000 |
| COc1ccc2c(OCc3ccc(S(C)(=N)=O)cc3F)ccnc2c1 (configuration not stated) [US11780849, Compound 135] | < 10 |
